For data set [1] the following is noted: mixture of the two diol species in acid, 20 hour period.
The nature of data set [2]: Hot acid stress test (aq. HCl, 65° C., 14-hydroxycodeinone monitored by LC/MS). The class given is physicochemical. The conditions noted are these: for growth in 14-hydroxycodeinone in hot acid: 65° C. aq. hydrochloride acid at pH<1, after 24 hours; for ABUK (14-hydroxycodeinone) level, 2 hours in hot acid / ABUK (14-hydroxycodeinone) level, 5 hours in hot acid / ABUK (14-hydroxycodeinone) level, 24 hours in hot acid: 65° C., aq. HCl; for ABUK (14-hydroxycodeinone) level, 0 hours in hot acid (T-zero): before heating, water + 3N aq. HCl.

The nature of data set [3]: Dry heat stress test (lab drying oven under air at 62° C., 14-hydroxycodeinone monitored by LC/MS). The class given is physicochemical. The conditions noted are these: for growth of 14-hydroxycodeinone, dry heat: dry heat (greater than 60° C.), after 14 days; for ABUK (14-hydroxycodeinone) level, 4 days at 62° C. / ABUK (14-hydroxycodeinone) level, 7 days at 62° C. / ABUK (14-hydroxycodeinone) level, 14 days at 62° C.: dry heat, under air; for growth in the level of 14-hydroxycodeinone, dry heat at 62° C.: under air at 62° C., monitored for 14 days. The protocol:
A 0.0225 g (0.597 sample of low ABUK oxycodone HCl (T-zero: 3.9 ppm 14-hydroxycodeinone) was placed in a standard lab drying oven under air at 62° C. and the level of 14-hydroxycodeinone was monitored by LC/MS for 14 days. No growth in the level of 14-hydroxycodeinone was observed.
A 0.0225 g (0.597 sample of low ABUK oxycodone (T zero: 3.3 ppm 14-hydroxycodeinone by LC/MS was placed in a standard lab drying oven under air at 62° C. and the level of 14-hydroxycodeinone was monitored by LC/MS for 14 days. No growth in the level of 14-hydroxycodeinone was observed
1.10 Procedure: • Separately inject the diluent as a blank. • Inject the resolution solution once. • Inject the impurity working standard three times. • Inject each sample solution under the full gradient. • Inject the diluent at the end. • Quantify the level of 14-Hydroxy Codeinone in the sample by comparing to the averaged corresponding peak specific response (SR) of the standard solution. • Report the level of 14-Hydroxy Codeinone found in the sample to the nearest 0.0001%. • Report the peak area of the diols for information only.

From patent US8703950B2, “Low ABUK oxycodone, its salts and methods of making same” (Johnson Matthey Public Limited Co., priority 2010, dated 2014) come the findings set out here.

Take `COc1ccc2c3c1O[C@H]1C(=O)C[C@H](O)[C@@]4(O)[C@@H](C2)N(C)CC[C@]314` (single isomer, unassigned) [peak at RRT 0.91]: in data set [1], the “degradation on exposure to acid” value is on record as “degraded little”.

As for `COc1ccc2c3c1O[C@H]1C(=O)CC[C@@]4(O)[C@@H](C2)N(C)CC[C@]314` [Oxycodone Base from Example 9, oxycodone base], in data set [2], the “growth in 14-hydroxycodeinone in hot acid” value is recorded as “no or minimal growth”; the “ABUK (14-hydroxycodeinone) level, 2 hours in hot acid” value is given as 2.5 ppm; the “ABUK (14-hydroxycodeinone) level, 5 hours in hot acid” value was 3.3 ppm; the “ABUK (14-hydroxycodeinone) level, 24 hours in hot acid” value stood at 6.4 ppm. Also, the “ABUK (14-hydroxycodeinone) level, 0 hours in hot acid (T-zero)” value (“ABUK (14-hydroxycodeinone) level … (T-zero)” below) in data set [2] is on record as 2.5 ppm. The “ABUK (14-hydroxycodeinone) level … (T-zero)” value in data set [2] (listed as low ABUK oxycodone base) is reported as 2.7 ppm. In addition, in data set [3], the “ABUK (14-hydroxycodeinone) level, T-zero (dry heat test)” value came to 3.3 ppm; the “growth of 14-hydroxycodeinone, dry heat” value is recorded as “no growth”; the “ABUK (14-hydroxycodeinone) level, 4 days at 62° C.” value is given as 3.4 ppm; the “ABUK (14-hydroxycodeinone) level, 7 days at 62° C.” value turned out to be 3.3 ppm. In addition, in data set [3], the “ABUK (14-hydroxycodeinone) level, 14 days at 62° C.” value is listed as 3.6 ppm and the “growth in the level of 14-hydroxycodeinone, dry heat at 62° C.” value is given as “No growth”.

Turning to `COc1ccc2c3c1O[C@H]1C(=O)CC[C@@]4(O)[C@@H](C2)N(C)CC[C@]314.Cl` [Oxycodone Hydrochloride from Example 11, oxycodone HCl], in data set [2], the “growth in 14-hydroxycodeinone in hot acid” value is recorded as “no or minimal growth”; the “ABUK (14-hydroxycodeinone) level, 2 hours in hot acid” value is 3.6 ppm; the “ABUK (14-hydroxycodeinone) level, 5 hours in hot acid” value is reported as 4.2 ppm; the “ABUK (14-hydroxycodeinone) level, 24 hours in hot acid” value came to 6.1 ppm. Moreover, the “ABUK (14-hydroxycodeinone) level … (T-zero)” value in data set [2] is listed as 2.5 ppm. In addition, in data set [3], the “ABUK (14-hydroxycodeinone) level, T-zero (dry heat test)” value amounted to 3.9 ppm; the “growth of 14-hydroxycodeinone, dry heat” value is on record as “no growth”; the “ABUK (14-hydroxycodeinone) level, 4 days at 62° C.” value worked out at 3.7 ppm; the “ABUK (14-hydroxycodeinone) level, 7 days at 62° C.” value was 4.0 ppm. In data set [3], the “ABUK (14-hydroxycodeinone) level, 14 days at 62° C.” value was determined as 3.7 ppm and the “growth in the level of 14-hydroxycodeinone, dry heat at 62° C.” value is recorded as “No growth”.
